Measured values reported in US20240382558A1, “PHARMACEUTICAL COMPOSITION FOR PREVENTING OR TREATING INTERSTITIAL CYSTITIS/BLADDER PAIN SYNDROME” (priority 2022, published 2024).

Tests used:
IC/BPS model rats [1] = assay: Cystometry (intravesical pressure and urination volume) in HCl-induced IC/BPS model rats; type: in vivo, rat
Protocol: Through the catheter, 250 μL of saline (Sham group) or 250 μL of 0.1 M HCl (IC group) was instilled into the bladder and held for 1 minute, and then the bladder was washed twice with saline. The Sham and IC groups were each divided into two groups (n=7-8/group), and 200 μL of saline or 200 μL of RGDS peptide solution (500 mg/L saline solution, MedChemExpress) was administered intraperitoneally. On day 7 after administration, a polyethylene catheter was inserted and retained in the apex of the bladder, and a pressure transducer (MLT0699, ADInstruments Ltd, Dunedin, New Zealand), PowerLab 4/26 (ADInstruments Ltd, Dunedin New Zealand) were connected. A syringe pump (YSP-101, YMC Co., Ltd., Kyoto, Japan) was connected to the pressure transducer to measure intravesical pressure and urination volume while continuously instilling 40 μL/min saline solution into the bladder. The pressure at the urination event peak on the cystometrogram was defined as the maximum intravesical pressure, the peak interval as the urination interval, the pressure immediately after the peak as the basal intravesical pressure, the pressure immediately before the peak as the threshold pressure for urination, and the urination volume at the peak as urine volume per urination event.
A similar study to Example 1 was conducted, except that the RGDS peptide used in Example 1 was replaced with 400 μL of cilengitide solution (6.75 g/L saline solution, Tokyo Kasei). In the cilengitide-administered group, the urination interval was prolonged compared to the group that received instillation of saline (FIG. 3), confirming that frequent urination was ameliorated.

IC/BPS model rats [2] = assay: Pain threshold by electronic von Frey filament on lower abdomen in IC/BPS model rats; type: in vivo, rat; details: IC+R group vs IC group; day 5 after administration; average of three measurements; FIG. 4
Protocol: Sham, IC, and IC+R groups were prepared as in Example 1. On day 5 after administration, the rats were placed in a metabolic cage with a wire mesh bottom and allowed to acclimate for 10 minutes, and the lower abdomen was stimulated with increasing pressure using an electronic von Frey filament (BIO-EVF, Bioseb, Vitrolles, France). The pressure at which an escape response was observed was measured as the pain threshold. This measurement was repeated three times with a 5-minute interval, and the average was calculated. The pain threshold increased in the IC+R group compared to the IC group (FIG. 4), confirming an ameliorating trend of pain.

[3] = among Sham, Sham+R, IC, IC+R groups, 200 μL RGDS peptide solution (500 mg/L) intraperitoneally, day 7

Row | Molecule | urination interval (IC/BPS model rats [1]; cilengitide-administered IC group vs saline group, 400 μL cilengitide solution (6.75 g/L saline), FIG. 3) | urination interval (IC/BPS model rats [1]; IC+R group vs IC group given saline, 200 μL RGDS peptide solution (500 mg/L saline) intraperitoneally, day 7 after administration, FIGS. 1 and 2) | basal intravesical pressure (IC/BPS model rats [1]; [3]) | maximum intravesical pressure (IC/BPS model rats [1]; [3]) | threshold pressure for urination (IC/BPS model rats [1]; [3]) | pain threshold (pressure at which an escape response was observed) (IC/BPS model rats [2])
1 | CC(C)[C@H]1C(=O)N[C@@H](CCCN=C(N)N)C(=O)NCC(=O)N[C@@H](CC(=O)O)C(=O)N[C@H](Cc2ccccc2)C(=O)N1C [cilengitide] | prolonged |  |  |  |  | 
2 | RGDS [RGDS peptide] |  | significantly prolonged | did not differ among all groups | did not differ among all groups | did not differ among all groups | increased
